For the experiment, the target named is T1, GluR0 (Synechocystis sp. PCC 6803, UniProt P73797).
T1 sequence (P73797 20-397): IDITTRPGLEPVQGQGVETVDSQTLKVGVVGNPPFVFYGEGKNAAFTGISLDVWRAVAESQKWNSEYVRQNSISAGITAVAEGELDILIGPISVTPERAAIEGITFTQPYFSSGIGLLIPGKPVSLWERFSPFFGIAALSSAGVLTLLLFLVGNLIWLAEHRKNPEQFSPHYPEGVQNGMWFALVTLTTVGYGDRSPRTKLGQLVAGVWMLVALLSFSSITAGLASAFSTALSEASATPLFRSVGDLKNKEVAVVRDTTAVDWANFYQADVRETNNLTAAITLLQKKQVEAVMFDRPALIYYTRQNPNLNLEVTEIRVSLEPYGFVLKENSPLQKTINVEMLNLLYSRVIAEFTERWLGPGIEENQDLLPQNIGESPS
Briefly: two-electrode voltage clamp, Xenopus oocytes. The format is cell-based. A general note: Two-electrode voltage clamp is typically applied to oocytes expressing channels or transporters.

SMILES strings stand for the structures.

As for `N[C@@H](CCC(=O)O)C(=O)O` [L-glutamate], the EC50 turned out to be 29.9 ± 5 µM.

By EC50 is commonly meant the concentration at which the effect is half-maximal.

The record behind these values is article doi:10.1101/2021.01.27.428399v1 (biorxiv, 2021).
